The record followed here is the Kinase Knowledgebase extract (Sharma et al. 2016).

The target in assay [1] is CDK2 (human) (UniProt P24941). Put plainly: Cell-Based Assay.
Assay [2] has as its target CDK2 (human) (UniProt P24941). Briefly: Enzyme Assay.

On to `O=C1Nc2ccc(F)c3c([S+]([O-])CCO)cc(-c4ccc[nH]4)c1c23` (stereo not given), for which, at CDK2 (human) [1] (rko), the IC50 (in general, the concentration that inhibits the measured activity by half) was no more than 10 µM. In turn, `COc1cc(-c2ccc[nH]2)c2c3c(ccc(F)c13)NC2=O` showed an IC50 against CDK2 (human) [2] of no more than 10 µM. Consider `O=C1Nc2ccc(F)c3c(N4CCCC(O)C4)cc(-c4ccc[nH]4)c1c23` (stereo not given), for which the IC50 at CDK2 (human) [2], on CDK2 (human) [1] (mda-mb-435) and on CDK2 (human) [1] (rko) was no more than 10 µM in each case. The molecule `Cc1cc(-c2ccc[nH]2)c2c3c(ccc(F)c13)NC2=O` gave an IC50 at CDK2 (human) [2] of no more than 10 µM. Still for that read-out and setting: the result for `NCCSc1cc(-c2ccc[nH]2)c2c3c(ccc(F)c13)NC2=O` reads no more than 10 µM. `NCC[S+]([O-])c1cc(-c2ccc[nH]2)c2c3c(ccc(F)c13)NC2=O` (stereo not given): the IC50 at CDK2 (human) [2], against CDK2 (human) [1] (mda-mb-435) and on CDK2 (human) [1] (rko) was no more than 10 µM in each case. In turn, `NCCOc1cc(-c2ccc[nH]2)c2c3c(ccc(F)c13)NC2=O` gave an IC50 against CDK2 (human) [2] of no more than 10 µM. The same measure, in the same setting: in the case of `CCN(CC)CCNc1cc(-c2ccc[nH]2)c2c3c(ccc(F)c13)NC2=O` it was no more than 10 µM. Same read-out and setting: the result for `O=C1Nc2ccc(F)c3c(S(=O)(=O)CCO)cc(-c4ccc[nH]4)c1c23` reads no more than 10 µM; that for `O=C1Nc2ccc(F)c3c(OCCO)cc(-c4ccc[nH]4)c1c23`, no more than 10 µM. Same read-out and setting: the result for `CC(=O)NCCNc1cc(-c2ccc[nH]2)c2c3c(ccc(F)c13)NC2=O` reads no more than 10 µM. With `CCOc1cc(-c2ccc[nH]2)c2c3c(ccc(F)c13)NC2=O`, the IC50 on CDK2 (human) [2] was no more than 10 µM. On CDK2 (human) [2], `O=C1Nc2ccc(F)c3c(N4CCC(O)CC4)cc(-c4ccc[nH]4)c1c23` yielded an IC50 of no more than 10 µM. On to `O=C1Nc2ccc(F)c3c(N4CCCC(CO)C4)cc(-c4ccc[nH]4)c1c23` (stereo not given), for which the IC50 against CDK2 (human) [2], against CDK2 (human) [1] (mda-mb-435) and at CDK2 (human) [1] (rko) was no more than 10 µM each time. For `O=C1Nc2ccc(F)c3c(N4CCOCC4)cc(-c4ccc[nH]4)c1c23`, on CDK2 (human) [2], the IC50 is no more than 10 µM.

Molecule `O=C1Nc2ccc(F)c3ccc(-c4ccc[nH]4)c1c23` showed an IC50 against CDK2 (human) [2] of no more than 10 µM. Molecule `Cc1c[nH]c(-c2cc(SCCN)c3c(F)ccc4c3c2C(=O)N4)c1C` had an IC50 against CDK2 (human) [2] of no more than 10 µM.

In turn, `O=C1Nc2ccc(F)c3c2C1=C(c1ccc[nH]1)CC3` displayed an IC50 on CDK2 (human) [2] of no more than 10 µM. Same read-out and setting: the result for `NCCS(=O)(=O)c1cc(-c2ccc[nH]2)c2c3c(ccc(F)c13)NC2=O` reads no more than 10 µM; that for `O=C1Nc2ccc(F)c3c(OCCCO)cc(-c4ccc[nH]4)c1c23`, no more than 10 µM.

Molecule `O=C1Nc2ccc(F)c3c(SCCO)cc(-c4ccc[nH]4)c1c23` came in with an IC50 on CDK2 (human) [2] of no more than 10 µM. `O=C1Nc2ccc(F)c3c(NCCO)cc(-c4ccc[nH]4)c1c23` displayed an IC50 at CDK2 (human) [2] of no more than 10 µM. Same read-out and setting: the result for `CC(C)(N)CNc1cc(-c2ccc[nH]2)c2c3c(ccc(F)c13)NC2=O` reads no more than 10 µM. As for `O=C1Nc2ccc(F)c3c(N4CCNCC4)cc(-c4ccc[nH]4)c1c23`, the half-maximal inhibitory concentration (IC50) on CDK2 (human) [2] was no more than 10 µM. The same measure, in the same setting: the result for `O=C1Nc2ccc(F)c3c(N4CC[C@@H](O)C4)cc(-c4ccc[nH]4)c1c23` reads no more than 10 µM; that for `CCC(C)c1cc(-c2ccc[nH]2)c2c3c(ccc(F)c13)NC2=O` (stereo not given), no more than 10 µM. On the same count and under the same terms, the result for `CCc1cc(-c2ccc[nH]2)c2c3c(ccc(F)c13)NC2=O` reads no more than 10 µM. On CDK2 (human) [2], `O=C1Nc2ccc(F)c3c(N4CCNC4=O)cc(-c4ccc[nH]4)c1c23` had an IC50 of no more than 10 µM. On CDK2 (human) [2], `NCCCNc1cc(-c2ccc[nH]2)c2c3c(ccc(F)c13)NC2=O` had an IC50 of no more than 10 µM.
